Experimental data published in article PMC8534050, “Discovery of a Potent and Highly Isoform-Selective Inhibitor of the Neglected Ribosomal Protein S6 Kinase Beta 2 (S6K2)” (Cancers, 2021).

What was measured:
Test in all cases: DSF thermal shift assay
Assay type in all cases: binding
Conditions in all cases: inhibitor 10 μM, protein 2 μM
ABL1 = molecular target: T1, ABL1 (Homo sapiens, UniProt P00519)
T1 construct: purchased in-house DSF (thermal shift) panel per Fedorov et al; IC50 follow-up at Reaction Biology Corp
Procedure: (§1) Differences in the melting temperature (ΔTm) were measured as described by Fedorov et al.. Purified proteins were buffered in 25 mM HEPES (pH 7.5), 500 mM NaCl and were assayed in a 384-well plate with a final protein concentration of 2 μM in 10 μL assay volume. Inhibitors were added to a final concentration of 10 μM using an ECHO 550 acoustic dispenser (Labcyte, San José, CA, USA). As a fluorescence probe, SYPRO-Orange (Molecular Probes, Eugene, OR, USA) was added in a 1:5000 dilution. […] Data were analyzed through Boltzmann equation in the Protein Thermal Shift software (Applied Biosystems, Waltham, MA, USA). Samples were measured in technical duplicates.

BRAF = molecular target: T2, BRAF (Homo sapiens, UniProt P15056)
T2 construct: purchased in-house DSF (thermal shift) panel per Fedorov et al
Procedure: as §1

BRD4 = molecular target: T3, BRD4 (Homo sapiens, UniProt O60885)
T3 construct: purchased in-house DSF (thermal shift) panel per Fedorov et al; IC50 follow-up at Reaction Biology Corp
Procedure: as §1

BRPF1 = molecular target: T4, BRPF1 (Homo sapiens, UniProt P55201)
T4 construct: purchased in-house DSF (thermal shift) panel per Fedorov et al; IC50 follow-up at Reaction Biology Corp
Procedure: as §1

CAMK1D = molecular target: T5, CAMK1D (Homo sapiens, UniProt Q8IU85)
T5 construct: purchased in-house DSF (thermal shift) panel per Fedorov et al; IC50 follow-up at Reaction Biology Corp
Procedure: as §1

CAMK2B = molecular target: T6, CAMK2B (Homo sapiens, UniProt Q13554)
T6 construct: purchased in-house DSF (thermal shift) panel per Fedorov et al; IC50 follow-up at Reaction Biology Corp
Procedure: as §1

CAMK2D = molecular target: T7, CAMK2D (Homo sapiens, UniProt Q13557)
T7 construct: purchased in-house DSF (thermal shift) panel per Fedorov et al
Procedure: as §1

CASK = molecular target: T8, CASK (Homo sapiens, UniProt O14936)
T8 construct: purchased in-house DSF (thermal shift) panel per Fedorov et al; IC50 follow-up at Reaction Biology Corp
T8 sequence (O14936 whole entry): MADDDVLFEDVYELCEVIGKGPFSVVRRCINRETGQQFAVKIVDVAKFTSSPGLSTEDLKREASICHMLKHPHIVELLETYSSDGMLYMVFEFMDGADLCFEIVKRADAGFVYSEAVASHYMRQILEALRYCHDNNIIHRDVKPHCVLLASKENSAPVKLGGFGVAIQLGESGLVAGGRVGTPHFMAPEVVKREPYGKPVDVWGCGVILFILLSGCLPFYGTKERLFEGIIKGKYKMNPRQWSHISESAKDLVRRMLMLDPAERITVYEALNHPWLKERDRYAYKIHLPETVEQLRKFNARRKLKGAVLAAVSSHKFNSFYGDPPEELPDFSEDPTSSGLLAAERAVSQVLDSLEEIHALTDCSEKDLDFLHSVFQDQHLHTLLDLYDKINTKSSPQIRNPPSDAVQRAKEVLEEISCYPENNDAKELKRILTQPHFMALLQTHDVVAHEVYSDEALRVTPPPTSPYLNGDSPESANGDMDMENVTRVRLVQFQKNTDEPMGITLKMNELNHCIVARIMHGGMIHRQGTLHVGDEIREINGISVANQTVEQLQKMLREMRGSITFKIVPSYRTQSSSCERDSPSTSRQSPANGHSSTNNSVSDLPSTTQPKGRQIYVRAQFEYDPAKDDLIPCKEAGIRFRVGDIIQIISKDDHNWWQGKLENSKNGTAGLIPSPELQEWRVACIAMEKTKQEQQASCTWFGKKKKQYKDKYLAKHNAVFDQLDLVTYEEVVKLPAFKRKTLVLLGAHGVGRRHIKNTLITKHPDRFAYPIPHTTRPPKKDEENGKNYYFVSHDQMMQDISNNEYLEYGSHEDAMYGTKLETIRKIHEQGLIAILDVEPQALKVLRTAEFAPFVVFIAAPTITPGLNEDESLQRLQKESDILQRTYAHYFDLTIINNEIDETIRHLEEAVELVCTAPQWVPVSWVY
Procedure: as §1

CDKL1 = molecular target: T9, CDKL1 (Homo sapiens, UniProt Q00532)
T9 construct: purchased in-house DSF (thermal shift) panel per Fedorov et al; IC50 follow-up at Reaction Biology Corp
Procedure: as §1

CLK3 = molecular target: T10, CLK3 (Homo sapiens, UniProt P49761)
T10 construct: purchased in-house DSF (thermal shift) panel per Fedorov et al
T10 sequence (P49761 whole entry): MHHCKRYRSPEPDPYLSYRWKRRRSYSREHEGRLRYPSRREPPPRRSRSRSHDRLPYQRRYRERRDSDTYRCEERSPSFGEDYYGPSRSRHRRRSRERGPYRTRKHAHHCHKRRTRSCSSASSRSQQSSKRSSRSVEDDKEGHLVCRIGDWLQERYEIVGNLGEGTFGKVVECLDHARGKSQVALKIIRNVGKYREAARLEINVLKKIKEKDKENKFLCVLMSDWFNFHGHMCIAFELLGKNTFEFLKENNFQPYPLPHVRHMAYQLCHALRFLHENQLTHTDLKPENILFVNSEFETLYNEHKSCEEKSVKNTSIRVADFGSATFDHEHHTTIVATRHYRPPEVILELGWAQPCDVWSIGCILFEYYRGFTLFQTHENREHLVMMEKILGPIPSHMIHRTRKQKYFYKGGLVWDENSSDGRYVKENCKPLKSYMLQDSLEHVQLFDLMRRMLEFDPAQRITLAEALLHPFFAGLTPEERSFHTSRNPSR
Procedure: as §1

CSNK1D = molecular target: T11, CSNK1D (Homo sapiens, UniProt P48730)
T11 construct: purchased in-house DSF (thermal shift) panel per Fedorov et al
T11 sequence (P48730 whole entry): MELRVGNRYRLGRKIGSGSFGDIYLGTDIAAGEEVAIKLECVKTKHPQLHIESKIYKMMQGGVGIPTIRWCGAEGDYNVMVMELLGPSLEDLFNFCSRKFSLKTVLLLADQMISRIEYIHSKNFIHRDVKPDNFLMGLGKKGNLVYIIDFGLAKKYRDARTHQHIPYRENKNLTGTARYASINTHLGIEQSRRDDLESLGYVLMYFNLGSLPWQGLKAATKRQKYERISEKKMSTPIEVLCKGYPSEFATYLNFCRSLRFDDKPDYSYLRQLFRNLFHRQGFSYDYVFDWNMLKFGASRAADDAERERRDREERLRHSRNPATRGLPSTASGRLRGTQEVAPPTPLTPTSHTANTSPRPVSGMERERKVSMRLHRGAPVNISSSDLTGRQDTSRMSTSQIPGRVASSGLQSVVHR
Procedure: as §1

DMPK1 = molecular target: T12, DMPK1 (Homo sapiens, UniProt Q09013)
T12 construct: purchased in-house DSF (thermal shift) panel per Fedorov et al
Procedure: as §1

DYRK1A = molecular target: T13, DYRK1A (Homo sapiens, UniProt Q13627)
T13 construct: purchased in-house DSF (thermal shift) panel per Fedorov et al
Procedure: as §1

DYRK2 = molecular target: T14, DYRK2 (Homo sapiens, UniProt Q92630)
T14 construct: purchased in-house DSF (thermal shift) panel per Fedorov et al
Procedure: as §1

EPHA2 = molecular target: T15, EPHA2 (Homo sapiens, UniProt P29317)
T15 construct: purchased in-house DSF (thermal shift) panel per Fedorov et al
Procedure: as §1

EPHA5 = molecular target: T16, EPHA5 (Homo sapiens, UniProt P54756)
T16 construct: purchased in-house DSF (thermal shift) panel per Fedorov et al; IC50 follow-up at Reaction Biology Corp
Procedure: as §1

FGFR2 = molecular target: T17, FGFR2 (Homo sapiens, UniProt P21802)
T17 construct: purchased in-house DSF (thermal shift) panel per Fedorov et al
Procedure: as §1

GSG2 = molecular target: T18, GSG2 (Homo sapiens, UniProt Q8TF76)
T18 construct: purchased in-house DSF (thermal shift) panel per Fedorov et al
Procedure: as §1

GSK3B = molecular target: T19, GSK3B (Homo sapiens, UniProt P49841)
T19 construct: purchased in-house DSF (thermal shift) panel per Fedorov et al; IC50 follow-up at Reaction Biology Corp
Procedure: as §1

MAP2K1 = molecular target: T20, MAP2K1 (Homo sapiens, UniProt Q02750)
T20 construct: purchased in-house DSF (thermal shift) panel per Fedorov et al
Procedure: as §1

MAP2K6 = molecular target: T21, MAP2K6 (Homo sapiens, UniProt P52564)
T21 construct: purchased in-house DSF (thermal shift) panel per Fedorov et al
Procedure: as §1

MAPK1 = molecular target: T22, MAPK1 (Homo sapiens, UniProt P28482)
T22 construct: purchased in-house DSF (thermal shift) panel per Fedorov et al; IC50 follow-up at Reaction Biology Corp
Procedure: as §1

MAPK10 = molecular target: T23, MAPK10 (Homo sapiens, UniProt P53779)
T23 construct: purchased in-house DSF (thermal shift) panel per Fedorov et al
Procedure: as §1

MAPK14 = molecular target: T24, MAPK14 (Homo sapiens, UniProt Q16539)
T24 construct: purchased in-house DSF (thermal shift) panel per Fedorov et al
Procedure: as §1

MAPKAPK2 = molecular target: T25, MAPKAPK2 (Homo sapiens, UniProt P49137)
T25 construct: purchased in-house DSF (thermal shift) panel per Fedorov et al; IC50 follow-up at Reaction Biology Corp
T25 sequence (P49137 whole entry): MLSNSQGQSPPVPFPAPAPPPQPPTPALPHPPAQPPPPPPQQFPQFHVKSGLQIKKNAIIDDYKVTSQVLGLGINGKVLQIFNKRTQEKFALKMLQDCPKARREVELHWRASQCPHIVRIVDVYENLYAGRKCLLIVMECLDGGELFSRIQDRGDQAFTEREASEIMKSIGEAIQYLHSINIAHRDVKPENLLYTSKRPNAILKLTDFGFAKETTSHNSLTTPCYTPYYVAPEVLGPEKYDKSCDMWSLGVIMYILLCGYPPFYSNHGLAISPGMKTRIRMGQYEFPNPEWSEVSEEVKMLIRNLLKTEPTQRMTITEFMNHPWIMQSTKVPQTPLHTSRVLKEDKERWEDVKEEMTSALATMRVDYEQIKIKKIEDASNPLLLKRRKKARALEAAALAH
Procedure: as §1

MARK4 = molecular target: T26, MARK4 (Homo sapiens, UniProt Q96L34)
T26 construct: purchased in-house DSF (thermal shift) panel per Fedorov et al; IC50 follow-up at Reaction Biology Corp
Procedure: as §1

MELK = molecular target: T27, MELK (Homo sapiens, UniProt Q14680)
T27 construct: purchased in-house DSF (thermal shift) panel per Fedorov et al
Procedure: as §1

MST3 = molecular target: T28, MST3 (Homo sapiens, UniProt Q9Y6E0)
T28 construct: purchased in-house DSF (thermal shift) panel per Fedorov et al
Procedure: as §1

MST4 = molecular target: T29, MST4 (Homo sapiens, UniProt Q9P289)
T29 construct: purchased in-house DSF (thermal shift) panel per Fedorov et al
T29 sequence (Q9P289 whole entry): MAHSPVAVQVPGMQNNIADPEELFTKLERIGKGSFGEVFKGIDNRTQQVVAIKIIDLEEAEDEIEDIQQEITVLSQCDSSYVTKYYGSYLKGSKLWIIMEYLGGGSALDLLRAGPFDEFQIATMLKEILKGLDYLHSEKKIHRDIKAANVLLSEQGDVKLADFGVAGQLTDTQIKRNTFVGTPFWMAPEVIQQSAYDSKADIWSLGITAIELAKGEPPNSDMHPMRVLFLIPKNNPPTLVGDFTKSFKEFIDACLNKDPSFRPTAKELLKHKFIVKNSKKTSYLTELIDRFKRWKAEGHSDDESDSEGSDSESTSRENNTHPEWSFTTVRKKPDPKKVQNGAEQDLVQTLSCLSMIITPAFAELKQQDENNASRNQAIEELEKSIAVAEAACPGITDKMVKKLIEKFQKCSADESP
Procedure: as §1

NEK7 = molecular target: T30, NEK7 (Homo sapiens, UniProt Q8TDX7)
T30 construct: purchased in-house DSF (thermal shift) panel per Fedorov et al
Procedure: as §1

PKMYT1 = molecular target: T31, PKMYT1 (Homo sapiens, UniProt Q99640)
T31 construct: purchased in-house DSF (thermal shift) panel per Fedorov et al; IC50 follow-up at Reaction Biology Corp
T31 sequence (Q99640 whole entry): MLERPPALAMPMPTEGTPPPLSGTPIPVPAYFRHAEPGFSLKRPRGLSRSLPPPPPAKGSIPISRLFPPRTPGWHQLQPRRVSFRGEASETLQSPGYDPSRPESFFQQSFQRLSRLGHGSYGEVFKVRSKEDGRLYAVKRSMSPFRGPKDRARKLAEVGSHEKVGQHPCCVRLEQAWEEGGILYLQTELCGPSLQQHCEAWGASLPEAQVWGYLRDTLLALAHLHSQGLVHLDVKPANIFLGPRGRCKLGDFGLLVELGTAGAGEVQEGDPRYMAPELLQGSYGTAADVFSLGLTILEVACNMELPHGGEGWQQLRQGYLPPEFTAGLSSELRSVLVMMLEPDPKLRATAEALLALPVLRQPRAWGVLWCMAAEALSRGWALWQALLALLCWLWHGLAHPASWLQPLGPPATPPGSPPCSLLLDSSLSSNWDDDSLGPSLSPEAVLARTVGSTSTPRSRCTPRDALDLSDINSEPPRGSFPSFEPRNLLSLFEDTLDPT
Procedure: as §1

RIOK2 = molecular target: T32, RIOK2 (Homo sapiens, UniProt Q9BVS4)
T32 construct: purchased in-house DSF (thermal shift) panel per Fedorov et al; IC50 follow-up at Reaction Biology Corp
Procedure: as §1

RPS6KA1 = molecular target: T33, RPS6KA1 (Homo sapiens, UniProt Q15418)
T33 construct: purchased in-house DSF (thermal shift) panel per Fedorov et al
Procedure: as §1

RPS6KA6 = molecular target: T34, RPS6KA6 (Homo sapiens, UniProt Q9UK32)
T34 construct: purchased in-house DSF (thermal shift) panel per Fedorov et al
Procedure: as §1

SRC = molecular target: T35, SRC (Homo sapiens, UniProt P12931)
T35 construct: purchased in-house DSF (thermal shift) panel per Fedorov et al
T35 sequence (P12931 whole entry): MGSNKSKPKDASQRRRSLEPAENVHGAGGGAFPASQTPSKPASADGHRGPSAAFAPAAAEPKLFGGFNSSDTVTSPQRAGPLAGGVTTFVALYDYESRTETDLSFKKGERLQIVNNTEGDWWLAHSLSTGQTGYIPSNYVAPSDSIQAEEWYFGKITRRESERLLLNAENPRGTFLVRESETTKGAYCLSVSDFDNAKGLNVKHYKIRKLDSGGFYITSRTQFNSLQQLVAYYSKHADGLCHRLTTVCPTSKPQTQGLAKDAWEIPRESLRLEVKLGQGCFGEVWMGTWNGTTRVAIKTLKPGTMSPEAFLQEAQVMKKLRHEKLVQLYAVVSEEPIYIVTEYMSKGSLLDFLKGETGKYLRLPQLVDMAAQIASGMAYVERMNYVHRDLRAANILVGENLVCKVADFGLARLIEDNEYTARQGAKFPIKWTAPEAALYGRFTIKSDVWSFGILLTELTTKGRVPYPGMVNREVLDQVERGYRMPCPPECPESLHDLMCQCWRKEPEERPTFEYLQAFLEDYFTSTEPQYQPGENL
Procedure: as §1

SRPK1 = molecular target: T36, SRPK1 (Homo sapiens, UniProt Q96SB4)
T36 construct: purchased in-house DSF (thermal shift) panel per Fedorov et al
T36 sequence (Q96SB4 whole entry): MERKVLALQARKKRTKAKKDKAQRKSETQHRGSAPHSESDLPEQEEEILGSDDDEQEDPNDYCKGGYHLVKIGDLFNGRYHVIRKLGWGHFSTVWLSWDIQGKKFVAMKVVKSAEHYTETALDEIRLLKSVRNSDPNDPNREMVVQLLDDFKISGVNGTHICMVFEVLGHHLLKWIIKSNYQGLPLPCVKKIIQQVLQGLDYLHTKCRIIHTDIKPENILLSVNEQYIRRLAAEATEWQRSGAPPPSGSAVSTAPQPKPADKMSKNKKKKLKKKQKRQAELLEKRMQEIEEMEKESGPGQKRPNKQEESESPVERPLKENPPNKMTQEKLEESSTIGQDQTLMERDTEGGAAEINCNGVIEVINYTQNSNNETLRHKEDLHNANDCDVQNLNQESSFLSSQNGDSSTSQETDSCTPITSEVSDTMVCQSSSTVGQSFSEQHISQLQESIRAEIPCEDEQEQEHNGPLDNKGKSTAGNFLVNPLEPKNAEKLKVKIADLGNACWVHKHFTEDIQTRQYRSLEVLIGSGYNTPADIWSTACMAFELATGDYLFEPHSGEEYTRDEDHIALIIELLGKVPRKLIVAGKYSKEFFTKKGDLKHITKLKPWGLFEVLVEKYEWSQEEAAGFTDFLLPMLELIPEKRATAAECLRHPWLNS
Procedure: as §1

STK4 = molecular target: T37, STK4 (Homo sapiens, UniProt Q13043)
T37 construct: purchased in-house DSF (thermal shift) panel per Fedorov et al; IC50 follow-up at Reaction Biology Corp
T37 sequence (Q13043 whole entry): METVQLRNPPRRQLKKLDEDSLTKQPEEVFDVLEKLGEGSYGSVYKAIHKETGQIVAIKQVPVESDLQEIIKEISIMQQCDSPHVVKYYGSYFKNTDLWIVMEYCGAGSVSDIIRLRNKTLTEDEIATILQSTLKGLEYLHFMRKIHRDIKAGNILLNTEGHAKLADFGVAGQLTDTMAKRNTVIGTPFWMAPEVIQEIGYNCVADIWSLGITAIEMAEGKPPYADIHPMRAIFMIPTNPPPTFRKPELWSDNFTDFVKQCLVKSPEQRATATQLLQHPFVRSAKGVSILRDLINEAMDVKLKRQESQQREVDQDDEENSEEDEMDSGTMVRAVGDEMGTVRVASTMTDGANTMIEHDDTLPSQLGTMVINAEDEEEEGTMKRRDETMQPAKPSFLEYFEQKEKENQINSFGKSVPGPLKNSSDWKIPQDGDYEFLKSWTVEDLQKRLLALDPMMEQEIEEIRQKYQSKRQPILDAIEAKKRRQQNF
Procedure: as §1

TLK1 = molecular target: T38, TLK1 (Homo sapiens, UniProt Q9UKI8)
T38 construct: purchased in-house DSF (thermal shift) panel per Fedorov et al; IC50 follow-up at Reaction Biology Corp
Procedure: as §1

TOPK = molecular target: T39, TOPK (Homo sapiens, UniProt Q96KB5)
T39 construct: purchased in-house DSF (thermal shift) panel per Fedorov et al
Procedure: as §1

ULK3 = molecular target: T40, ULK3 (Homo sapiens, UniProt Q6PHR2)
T40 construct: purchased in-house DSF (thermal shift) panel per Fedorov et al
Procedure: as §1

VRK1 = molecular target: T41, VRK1 (Homo sapiens, UniProt Q99986)
T41 construct: purchased in-house DSF (thermal shift) panel per Fedorov et al; IC50 follow-up at Reaction Biology Corp
Procedure: as §1

With `CCc1cnc(Nc2nc(Cl)ccc2[N+](=O)[O-])nc1N1CCN(Cc2nc3cc(C(F)(F)F)ccc3[nH]2)CC1` [Compound 2] the ΔTm at 10 µM (ABL1) was 0.6 °C, the ΔTm at 10 µM (BRAF) was -0.1 °C and the ΔTm at 10 µM (BRD4) was -1 °C. For the same compound, the ΔTm at 10 µM (BRPF1) was 0.9 °C, the ΔTm at 10 µM (CAMK1D) was 1.1 °C and the ΔTm at 10 µM (CAMK2B) was -2.3 °C. It also gave a ΔTm at 10 µM (CAMK2D) of -0.1 °C, a ΔTm at 10 µM (CASK) of -0.9 °C and a ΔTm at 10 µM (CDKL1) of -0.4 °C. It also gave a ΔTm at 10 µM (CLK3) of 0.1 °C, a ΔTm at 10 µM (CSNK1D) of 0.2 °C and a ΔTm at 10 µM (DMPK1) of 0.2 °C. It also gave a ΔTm at 10 µM (DYRK1A) of -2.4 °C, a ΔTm at 10 µM (DYRK2) of 0.1 °C and a ΔTm at 10 µM (EPHA2) of 0.3 °C. For the same compound, the ΔTm at 10 µM (EPHA5) was 0.5 °C, the ΔTm at 10 µM (FGFR2) was 0.3 °C and the ΔTm at 10 µM (GSG2) was 0.1 °C. It also gave a ΔTm at 10 µM (GSK3B) of 0.4 °C, a ΔTm at 10 µM (MAP2K1) of -0.3 °C and a ΔTm at 10 µM (MAP2K6) of 0.5 °C. It also gave a ΔTm at 10 µM (MAPK1) of -0.2 °C, a ΔTm at 10 µM (MAPK10) of 0.1 °C and a ΔTm at 10 µM (MAPK14) of -0.5 °C. It also gave a ΔTm at 10 µM (MAPKAPK2) of -0.3 °C, a ΔTm at 10 µM (MARK4) of 0.1 °C and a ΔTm at 10 µM (MELK) of 0.4 °C. The ΔTm at 10 µM (MST3) was -0.3 °C, the ΔTm at 10 µM (MST4) was -1.1 °C and the ΔTm at 10 µM (NEK7) was 0.2 °C. It also gave a ΔTm at 10 µM (PKMYT1) of -1 °C, a ΔTm at 10 µM (RIOK2) of -0.8 °C and a ΔTm at 10 µM (RPS6KA1) of 0.3 °C. It also gave a ΔTm at 10 µM (RPS6KA6) of 0.6 °C, a ΔTm at 10 µM (SRC) of -0.5 °C and a ΔTm at 10 µM (SRPK1) of 0 °C. It also gave a ΔTm at 10 µM (STK4) of -0.5 °C, a ΔTm at 10 µM (TLK1) of 0 °C and a ΔTm at 10 µM (TOPK) of -0.5 °C. It also gave a ΔTm at 10 µM (ULK3) of 0.4 °C and a ΔTm at 10 µM (VRK1) of -0.4 °C.
